Experimental data published in patent US9598441B2, “Therapeutic compounds and methods” (Wayne State University, priority 2011, dated 2017).

How the values were obtained:
cell cycle progression = test: Flow-cytometric cell cycle analysis (propidium iodide); format: cell-based
Method: FIGS. 5A-5D: CFM-4 suppresses cell growth in part by elevating CARP-1 and diminishing cyclin B1 levels. In panel A, cells were treated with indicated agents for noted times, labeled with propidium iodide, and sorted by flow cytometry. Histogram and table below represent cell numbers in various phases of cell cycle. In panel B, cells were treated with indicated dose of CFM-4 for noted times, in panel C, cells were either untreated (−) or treated (+) with CFM-4 for noted dose and time, while in panel D, cells were either treated with vehicle control (DMSO) or with indicated agents for noted dose and time. The cell lysates (50 μg/lane) in panels B-D were analyzed by WB for levels of CARP-1, Cyclin B1, Cdh1, APC-2, CDKIs p21^WAF1/CIP1, p27^KIP1 and actin proteins as in methods.
CARP-1 is required for CFM-4-dependent cell growth inhibition. Because APC/C E3 ubiquitin ligase functions to regulate cell cycle and CFM-4 binds with CARP-1 to inhibit its binding with APC-2, it was next determined whether the SMIs interfere with cell cycle progression. […] The APC/C^Cdc20 E3 ubiquitin ligase regulates turnover of the mitotic cyclin B1 and Cdc20 during the G2M phase and exit to mitosis while APC/C^Cdh1 E3 ligase targets Cdc20 as well as SCF ligase to accomplish exit from mitosis and transition to G0/G1 phases. Attenuation of SCF ligase by APC/C^Cdh1, in turn, results in elevated levels of CDKIs p21^WAF1/CIP1 and p27^KIP1. […] To investigate this possibility it was determined whether CFM-4 binding with CARP-1 modulated CARP-1 levels. […] Levels of both the p21^WAF1/CIP1 and p27^KIP1 CDKIs were elevated when cells were exposed to CFM-4 for 0.5-1.0 h time periods (FIG. 5B). This may likely be due to the initial response of the cells to stress following exposure to CFM-4. […] This loss of CDKI expression could be due to attenuation of APC/C^Cdh1 activity following modest reduction in the Cdh1 levels as well as inability of CARP-1 to bind with APC-2 over prolonged periods of treatments with CFM-4. […]

apoptosis of HBC cells = test: ELISA-based DNA fragmentation apoptosis assay; format: cell-based, human
Method: For apoptosis ELISA assay, 4−5×10^2 cells were seeded in 96-well plates and treated essentially as indicated in the MTT assay above. Untreated as well as treated cells were lysed, and levels of mono and oligo-nucleosomal DNA fragments in the lysates were determined by measuring optical density of each sample at 405 nm and 495 nm wavelengths. […] For TUNEL labeling, the cells were treated with various agents, fixed, labeled and photographed essentially as detailed in immuno-localization protocols described before (Zhang, L., Levi, E., Majumder, P., Yu, Y., Aboukameel, A., Du, J., Xu, H., Mohammad, R. M., Hatfield, J. S., Wali, A., Adsay, V., Majumdar, A. P. N., and Rishi, A. K. (2007) Mol. Cancer. Ther. 6(5), 1661-1672). […] Cell lysates derived from vehicle DMSO (Control) or CFM-4-treated cells were added to the wells that had immobilized fluorogenic caspase-3, caspase-8, caspase-9, or caspase-2 substrates. The fluorescence released from the activated caspase-dependent cleavage of respective substrate was detected by a plate reader at the excitation and emission wavelengths of 380 nm and 460 nm, respectively.
CFM-4 suppresses cell growth in part by inducing apoptosis: In light of the data in FIG. 5A showing significant accumulation of CFM-4-treated cells in the sub G0 phase, and the fact that cells undergoing apoptosis often accumulate in the sub G0 fractions, it was next ascertained the extent of apoptosis stimulation by these agents by utilizing an ELISA-based DNA fragmentation assay. […] The intrinsic, mitochondria-mediated and the extrinsic, extracellular receptor-activated, apoptosis signaling pathways are transduced by activation of various caspases that promote eventual breakdown of cellular proteins, organelles and plasma membrane. […] It was next determined whether apoptosis stimulation by CFM-4 involved activation of caspases 8 or 9 or both. […] The activation of caspases in the presence of CFM-4 was further profiled by utilizing a fluorescence-based quantitative assay as detailed in methods. […]

SMILES | cell cycle effect (flow cytometry) (cell cycle progression) | apoptosis level (DNA fragmentation ELISA) (apoptosis of HBC cells)
O=C1N(Cc2ccccc2Cl)c2ccccc2C12NN=C(c1ccccc1)S2 (stereo not drawn) [CFM-4, 1-(2-chlorobenzyl)-5′-phenyl-3′H-spiro[indoline-3,2′-[1,3,4]thiadiazol]-2-one] | induced G2M cell cycle arrest | significantly elevated levels of apoptosis
COc1cccc2c1C(=O)c1c(O)c3c(c(O)c1C2=O)C[C@@](O)(C(=O)CO)C[C@@H]3O[C@H]1C[C@H](N)[C@H](O)[C@H](C)O1 [ADR, adriamycin, reference compound] | induced G2M cell cycle arrest | significantly elevated levels of apoptosis
Cc1cc(Br)cc2c1NC(=O)/C2=C1\SC(=S)NC1=O [CFM-1, (Z)-5-(5-bromo-7-methyl-2-oxoindolin-3-ylidene)-2-thioxothiazolidin-4-one] | induced G2M cell cycle arrest | without significant increase in apoptosis
